Reference: article PMC12641067 (Clinical Pharmacology and Therapeutics, 2025)
Several values for one entry are separate records, joined by “and”; a condition that tells them apart may be missing. Equal values may be shown once. Where a name gives a salt, the structure may show the parent alone. Read-outs that look alike come from different tables or passages of the source.

Key:
[1] = Population PK model of probenecid (plasma data); assay type: in vivo, human; settings: population estimate (RSE%)
Description: (§1) Individual plasma and urine data of GCDCA‐S in healthy subjects were obtained from three clinical studies. Tatosian et al.[18] (study #1) consisted of two occasions: on both occasions, a microdose probe drug cocktail for multiple clinically relevant transporters was administered, with a single oral dose of 600 mg rifampicin co‐administered on the second occasion (n = 6; 3 males, 3 females). Willemin et al.[22] (study #2) was a two‐phase, cross‐over study with a 21‐day washout period between the two phases. […] Study #3 consists of unpublished data from the same study design as reported by Willemin et al. (n = 12; 12 males).[22]
(§2) Models were evaluated using visual predictive check (VPC) plots, goodness‐of‐fit (GOF) plots, parameter uncertainty, and changes in objective function. Model visualization and simulations were conducted in MATLAB 2024a (MathWorks, Natick, MA, USA) and Graph Pad Prism 10.2.2 (GraphPad software, La Jolla, CA, USA).
(§3) The structural model for rifampicin was based on our previous report,[33] and represents a one‐compartment model with zero‐order absorption and linear elimination.
(§4) The models for rifampicin, probenecid, and GCDCA‐S incorporated both inter‐individual variability for a number of model parameters (assuming log‐normal distribution) and residual unexplained variability (using a combination of proportional and additive error models).

OATP1B transporters = settings: in vitro; cited from earlier work
[2] = cited from earlier work
[3] = cited from earlier work; remark: listed apart in the source
[4] = Plasma baseline concentration of bile acid biomarkers in clinical studies; assay type: in vivo, human; settings: Study #3 (unpublished data); average concentration 0 to 24 hours, no inhibitor
Description: as §1
Details of the clinical studies are in Table S1 . […] Simulations were conducted in agreement with the reported study designs. The median (50th percentile) of the predicted concentrations, along with the 90% prediction interval (5th and 95th percentiles), was plotted and compared against the observed data.
Table S1. […]
Cbaseline, GCDCA-S plasma baseline concentration in the absence of inhibitors. a Plasma concentration of subjects with SLCO1B1 c.521TT genotype were used for model verification. b In both occasions, Letermovir 480mg was administered, and it has been reported that single-dose Letermovir led to small increases in GCDCA-S concentrations vs. predose levels. c Calculated based on the reported plasma AUC0-24h.

[5] = Population PK turnover model of GCDCA-S (plasma and urine data); assay type: in vivo, human
Description: as §1, §2, §3
Different functions for evaluating diurnal fluctuation (e.g., Bateman, Power function) were investigated and applied to the synthesis rate in the GCDCA‐S model.
as §4

[6] = monkey, in vivo; cited from earlier work
[7] = Synthesis rate of precursor bile acids and inferred GCDCA-S ksyn; set-up: species or system human
Text: Verification of GCDCA-S ksyn estimated in this study
Literature data on the SULT2A1-mediated sulfation rate of GCDCA were not available. To evaluate the validity of GCDCA-S ksyn estimated by the POPPK model, GCDCA-S ksyn was assumed to be constrained by the synthesis rate of its precursor bile acids, and an inference was made based on the reported ksyn value of the corresponding precursors (CDCA and GCDCA).
In the absence of an inhibitor, ksyn of bile acids in the turnover model is represented by Equation 11.
Under steady-state conditions (where dC/dt=0), and given that the values of CLR of GCDCA-S and its corresponding precursors are relatively small compared to their CLh, ksyn of bile acids is expressed by Equation 12.10,11 It has been reported that the biliary excretion of bile acid sulfates is slower than that of their unsulfated forms,10,12 and assuming CLh,GCDCA-S < CLh,precursors, GCDCA-S ksyn was inferred, as […]
dt = [ksyn − (Cbile acid × CLh + Cbile acid × CLR)] × Vc (Eq.11)
ksyn = Cbile acid × CLh (Eq.12) where C (µM) is plasma concentration, ksyn (µmol/h) is the zero-order synthesis rate, CLh (L/h) is hepatic clearance, CLR (L/h) is renal clearance, VC (L) is the volume of distribution.
Table S5. GCDCA-S ksyn inferred from the ksyn of its corresponding precursors Biomarker Plasma baseline (nM) Denovo ksyn (µmol/h)
Reported value Ref Reported value Ref Notes
Biomarker Plasma baseline (nM) Inferred ksyn (µmol/h)
< 3.0 Based on information 1 […]
< 2.2 Based on information 3 aAveraged Cmean value of the baseline and control groups. bSynthesis rate of unconjugated chenodeoxycholic acid. cAveraged synthesis rate of chenodeoxycholic acid reported in six studies. dSynthesis rate of chenodeoxycholic acid-glycine.

[8] = baseline and interaction profile after rifampicin administration; cited from earlier work
[9] = human, in vivo; cited from earlier work
[10] = GCDCA-S CLh and fe inferred from other reported clinical DDI studies; assay type: in vivo, human
Description: Verification of GCDCA-S fe estimated in this study
The validity of GCDCA-S CLh and renal excretion fraction (fe) estimated in this study was evaluated by incorporating the GCDCA-S mean plasma concentration profile in other reported clinical DDI studies into the developed POPPK models. In the absence of inhibitors, under steady-state conditions (where dC/dt=0), GCDCA-S ksyn is expressed as shown in Equation 13. In the presence of rifampicin, at t=Tmax (where dC/dt=0), GCDCA-S ksyn is expressed as shown in Equation 14. By solving equation 13 and 14, CLh can be derived as shown in Equation 15. The CLh and fe values inferred from data obtained in each […]
ksyn = Cbaseline × CLh + Cbaseline × CLR (Eq.13)
k = C × CLh + C × CL (Eq.14) […]
CL = CL × Cmax−Cbaseline > CL × Cmax−Cbaseline (Eq.15)
h R Cbaseline − Cmax × 1 R Cbaseline where Cbaseline (µM) is plasma baseline concentration, Cmax (µM) is maximum plasma concentration, ksyn (µmol/h) is the zero-order synthesis rate, CLh (L/h) is hepatic clearance, CLR (L/h) is renal clearance, Cu,RIF (µM) is unbound plasma concentration of rifampicin, Ki,u,OATP1B3 (µM) is unbound inhibition constant against OATP1B3 for rifampicin.
Table S6. GCDCA-S CLh and fe inferred from other reported clinical DDI studies Reported values Inferred values Ref […]
Cbaseline, plasma baseline concentration of GCDCA-S; Cmax, maximum plasma concentration of GCDCA-S; fe, fraction excreted in urine of GCDCA-S; CLh, hepatic clearance of GCDCA-S; CLR, renal clearance […]
a Average concentration from 0 to 24hours. b The CLR value reported by Willemin et al.17 was used for calculation. Even when using the reported CLR values from other studies, the corresponding increase in CLh ensures that the estimated fe value in this calculation remains unchanged.

[11] = set-up: method as in PMID 19131563, PMID 1150035, PMID 955496, PMID 34686523; settings: healthy human volunteers; cited from earlier work
[12] = averaged Cmean value of the baseline and control groups
[13] = information 2 (CDCA, average of six studies) and 3 (chenodeoxycholic acid-glycine)
[14] = final model (without sex effect), population estimate (RSE%)
[15] = model with sex effect, population estimate (RSE%)

SMILES: CCCN(CCC)S(=O)(=O)c1ccc(C(=O)O)cc1 [PROB, probenecid]
- clearance ([1]; both sexes, human, plasma, oral, 500 mg): 15.8 mL/min
- V PROB [1]: 17 (10) L
- ka PROB ([1]; 500 mg oral approx. every 6 h): 1.1 (37) /h
- inhibition of OATP1B transporters (OATP1B transporters): weakly inhibits

SMILES: CC(CCC(=O)NCC(=O)O)C1CCC2C3C(O)CC4CC(O)CCC4(C)C3CCC12C (centres unmarked) [GCDCA, glycochenodeoxycholic acid]
- Plasma baseline [2, 12]: 540 nM
- Denovo ksyn [3, 13]: 14 µmol/h

SMILES: C[C@H](CCC(=O)O)[C@H]1CC[C@H]2[C@@H]3[C@H](O)C[C@@H]4C[C@H](O)CC[C@]4(C)[C@H]3CC[C@]12C [CDCA, chenodeoxycholic acid]
- Plasma baseline [2, 12]: 510 nM
- Denovo ksyn [3, 13]: 17 µmol/h
- Denovo ksyn ([3]; synthesis rate of unconjugated chenodeoxycholic acid (information 1)): 18 µmol/h

SMILES: C[C@H](CCC(=O)NCC(=O)O)[C@H]1CC[C@H]2[C@@H]3[C@H](O)C[C@@H]4C[C@H](OS(=O)(=O)O)CC[C@]4(C)[C@H]3CC[C@]12C [GCDCA‐S, Glycochenodeoxycholic acid 3‐O‐sulfate]
- Cbaseline [4]: 87 nM
- fraction excreted in urine (f e) ([5]; estimated from POP-PK model): < 5%
- V c,GCDCA–S ([5]; final model (without sex effect), fixed at value initially estimated from the POP-PK model): 4.8 L and 4.8 (FIXED) L
- CL h,GCDCA–S [5, 14]: 15 (13) L/h
- ksyn [5, 14]: 1.0 (18) μmol/h
- biliary excretion as share of elimination ([5]; from POP-PK model): ~ 95% and > 95%
- Vc, GCDCAS ([5]; model with sex effect, fixed): 4.8 L
- CLR, GCDCAS [5, 15]: 0.31 (8) L/h
- CLh, GCDCAS [5, 15]: 14 (13) L/h
- COVSEX (fractional change in ksyn in women relative to men) [5, 15]: 0.065 (404)
- ksyn [5, 15]: 1.0 (18) μmol/h
- fraction excreted in urine (f e) [6]: < 1%
- Inferred ksyn ([7]; based on information 1): < 3.0 µmol/h
- Inferred ksyn ([7]; based on information 2): < 2.8 µmol/h
- Inferred ksyn ([7]; based on information 3): < 2.2 µmol/h
- Plasma baseline ([2]; human, in vivo): 85 nM
- difference in plasma concentrations, chronic kidney disease patients relative to healthy individuals [8]: no significant difference
- CLR [9]: 0.37 L/h
- fe (inferred) ([10]; from data of ref 2): < 6.6%
- fe (inferred) ([10]; from data of ref 3): < 6.9%
- fe (inferred) ([10]; from data of ref 4): < 3.3%
- fe (inferred) ([10]; from data of ref 16): < 3.1%

SMILES: C[C@H](CCC(=O)O)[C@H]1CC[C@H]2[C@@H]3CC[C@@H]4C[C@H](OS(=O)(=O)O)CC[C@]4(C)[C@H]3CC[C@]12C [lithocholic acid sulfate]
- fraction excreted in urine (f e) [11]: < 5%
